According to paper PMC8724838 (Biomolecules & Therapeutics, 2021):

Experiments:
Format in all cases: cell-based
Mrgpra1 [1] = target: T1, Mrgpra1 (Mus musculus, UniProt Q91WW5); assay: calcium imaging
T1 sequence (Q91WW5 1-304): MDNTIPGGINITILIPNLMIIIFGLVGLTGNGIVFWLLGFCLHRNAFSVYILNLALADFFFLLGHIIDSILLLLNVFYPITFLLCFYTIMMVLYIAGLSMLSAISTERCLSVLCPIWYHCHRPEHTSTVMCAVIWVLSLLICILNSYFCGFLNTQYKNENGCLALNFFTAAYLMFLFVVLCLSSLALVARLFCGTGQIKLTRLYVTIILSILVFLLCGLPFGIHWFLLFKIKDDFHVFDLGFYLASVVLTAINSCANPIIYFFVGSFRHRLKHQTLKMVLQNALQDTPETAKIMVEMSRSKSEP

Mrgprb2 = target: T2, Mrgprb2 (Mus musculus, UniProt Q3KNA1); assay: calcium imaging
T2 sequence (Q3KNA1 1-338): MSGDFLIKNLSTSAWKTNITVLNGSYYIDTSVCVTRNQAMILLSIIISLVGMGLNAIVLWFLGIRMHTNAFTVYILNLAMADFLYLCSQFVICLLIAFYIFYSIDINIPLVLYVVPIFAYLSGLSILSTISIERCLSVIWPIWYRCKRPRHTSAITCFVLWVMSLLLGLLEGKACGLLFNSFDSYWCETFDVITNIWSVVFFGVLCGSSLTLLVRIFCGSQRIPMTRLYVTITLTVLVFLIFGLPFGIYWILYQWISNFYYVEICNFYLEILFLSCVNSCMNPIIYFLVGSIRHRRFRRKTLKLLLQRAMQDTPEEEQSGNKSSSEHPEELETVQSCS

Mrgpra1 [2] = target: T1, Mrgpra1; assay: calcium imaging, […] DCA in Mrgpra1-HEK293T cells

| EC50 (Mrgpra1 [1]) [µM] | EC50 (Mrgprb2) [µM] | SMILES | calcium imaging, 100 μM DCA in Mrgpra1-HEK293T cells (weaker than LCA) (Mrgpra1 [2]) |
| --- | --- | --- | --- |
| 290 | 183 | C[C@H](CCC(=O)O)[C@H]1CC[C@H]2[C@@H]3CC[C@@H]4C[C@H](O)CC[C@]4(C)[C@H]3CC[C@]12C [LCA, 3α-hydroxy-5β-cholan-24-oic acid] | – |
| – | – | C[C@H](CCC(=O)O)[C@H]1CC[C@H]2[C@@H]3CC[C@@H]4C[C@H](O)CC[C@]4(C)[C@H]3C[C@H](O)[C@]12C [DCA, deoxycholic acid] | also elevated the fluorescence intensity in Mrgpra1-HEK293T, but to a lesser extent (Fig. 1B, 1C) |
